{"source": "patent US12036243B2", "about": "“BCMA CAR-T cells with enhanced activities” (Allogene Therapeutics, Inc., priority 2020, dated 2024)", "key": {"[1]": {"system": "BCMA CAR T cells with or without the CACCR", "experimental": "We tested in an in vitro cell killing assay the effect of 150 nM dasatinib on the activities of the BCMA CAR T cells with or without the CACCR."}, "[2]": {"system": "BCMA CAR T cells with or without the CACCR", "experiment": "Rituximab complement-dependent cytotoxicity assay", "format": "cell-based", "conditions": "both types of BCMA CAR T cells", "source_text": "(§1) To minimize any potential safety concerns in clinical development, the BCMA CAR construct was designed to incorporate two rituximab mimotopes, which would sensitize the BCMA CAR T cells to rituximab-mediated depletion. We next tested the effects of rituximab on the BCMA CAR T cells with or without the CACCR."}, "[3]": {"system": "BCMA CAR T cells with or without the CACCR", "experiment": "Rituximab NK cell-mediated antibody-dependent cellular cytotoxicity assay", "format": "cell-based", "conditions": "both types of BCMA CAR T cells", "source_text": "as §1"}, "[4]": {"system": "BCMA CAR T cells, with or without the CACCR", "experiment": "Rituximab-mediated CAR T cell depletion in vivo (MM.1S-Luc-GFP-bearing mice)", "design": "species or system NSG mice", "protocol": "Next, we tested the effect of rituximab on decreasing BCMA CAR T cells, with or without the CACCR, in vivo. […] Rituximab (10 mg/kg) or PBS vehicle control was dosed intraperitoneally starting on the day of CAR T cell dosing and then daily for 4 additional days (n=9 or 10 per group)."}}, "data": [{"compound": "Cc1nc(Nc2ncc(C(=O)Nc3c(C)cccc3Cl)s2)cc(N2CCN(CCO)CC2)n1", "note": "[dasatinib]", "values": [{"measurement": "cytotoxicity of BCMA CAR T cells", "setting": "[1]", "value": "abolished the cytotoxicity"}]}, {"compound": "rituximab", "values": [{"measurement": "viable CAR T cells", "setting": "[2]", "value": "significantly decreased viable CAR T cells in a dose-responsive manner"}, {"measurement": "viable CAR T cells", "setting": "[3]", "value": "significantly decreased viable CAR T cells in a dose-responsive manner"}, {"measurement": "tumor burden following rituximab-mediated CAR T cell depletion", "setting": "[4]; rituximab 10 mg/kg i.p.", "value": "compromised anti-tumor efficacy"}, {"measurement": "CAR T cell counts in peripheral blood", "setting": "[4]; rituximab 10 mg/kg i.p. daily for 5 days, 7 days post-CAR T cell dosing", "value": "efficient and complete elimination of both CAR T cells"}]}]}
